Structures are written as SMILES.

T1 sequence (Q13526 whole entry): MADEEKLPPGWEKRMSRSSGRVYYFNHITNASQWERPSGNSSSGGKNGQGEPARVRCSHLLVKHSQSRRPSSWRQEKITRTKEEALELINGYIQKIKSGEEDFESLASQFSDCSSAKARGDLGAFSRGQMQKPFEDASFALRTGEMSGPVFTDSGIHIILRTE

This assay addresses T1, Pin1 (Homo sapiens, UniProt Q13526).
T1 construct: purchased Anaspec
Kind of assay: Evaluation of Pin1 enzyme inhibitory activity (Sensolyte Green Pin1 assay kit). The assay is classed as biochemical. Particulars: concentration at which the Pin1 enzyme activity is inhibited; 2 hours at room temperature, fluorescence 490 nm/520 nm; read-out: Pin 1 inhibition. How it is done: In order to evaluate the Pin1 enzyme inhibitory activity of the compound represented by formula 1 according to the present invention, the following experiment was performed, and the results are shown in Table 2 below.
The enzyme activity of Pin1 protein was measured using a sensolyte Green Pin1 assay kit of Anaspec. The substrate was diluted in a buffer at a ratio of 1:100 to prepare a concentration of 1 μM, and the protein was diluted in a buffer at a ratio of 1:20 to prepare a concentration of 50 μg/ml. In addition, a developing solution was prepared by diluting thereof in a buffer at a ratio of 1:100.
The compound prepared in each example was diluted with DMSO and prepared at a concentration of 100 μM, 10 μM, 1 μM or 0.1 μM using a buffer. After sequentially adding 10 μl of the compound prepared in each Example diluted to four concentrations according to the above method, 10 μl of Pin1 protein, and 30 μl of the developing solution to each well of a black 96-well plate, […]. Finally, 50 μl of the substrate was added to each well of the plate, and the enzyme reaction was carried out after shaking the plate for 10 seconds.
Then, the plate was incubated for 2 hours at room temperature in an environment without light, and the fluorescence values at 490 nm/520 nm wavelength were measured using a device of Synergy Neo […]. The results are shown in Table 2 below by dividing the grades of A to D for each concentration (μM) at which the Pin1 enzyme activity is inhibited.
For `CCCCOc1ccc(S(=O)(=O)NCCCc2ccc(-c3ccccc3)cc2)cc1` [Example 1, N-(3-([1,1′-biphenyl]-4-yl)propyl)-4-butoxybenzenesulfonamide], the IC50 was over 100 µM.

`CCCCOc1ccc(S(=O)(=O)NCCCN2CCN(C(C)C)CC2)cc1` [Example 2, 4-butoxy-N-(3-(4-isopropylpiperazin-1-yl)propyl)benzenesulfonamide]: the IC50 was over 100 µM.

Regarding `CCCCOc1ccc(S(=O)(=O)NCCCc2ccc(Cl)cc2)cc1` [Example 3, 4-butoxy-N-(3-(4-chlorophenyl)propyl)benzenesulfonamide], the IC50 was over 100 µM.

In the case of `CCCCOc1ccc(S(=O)(=O)NCCCC2CCCCC2)cc1` [Example 4, 4-butoxy-N-(3-cyclohexylpropyl)benzenesulfonamide], the IC50 was over 100 µM.

Turning to `CCCCOc1ccc(S(=O)(=O)NCCCc2cccnc2)cc1` [Example 5, 4-butoxy-N-(3-(pyridin-3-yl)propyl)benzensulfonamide], the IC50 was over 100 µM.

Take `CCCCOc1ccc(S(=O)(=O)NCCCN2CCOCC2)cc1` [Example 6, 4-butoxy-N-(3-morpholinopropyl)benzenesulfonamide]: the IC50 was over 100 µM.

Consider `CCCCOc1ccc(S(=O)(=O)NCCc2ccc(N3CCOCC3)cc2)cc1` [Example 7, 4-butoxy-N-(4-morpholinophenethyl)benzenesulfonamide], for which the IC50 was over 100 µM.

As to `CCCCOc1ccc(S(=O)(=O)NCCc2ccc(C(=O)O)cc2)cc1` [Example 8, 4-(2-(4-butoxyphenylsulfonamido)ethyl)benzoic acid], the IC50 is over 100 µM.

For `CCCCOc1ccc(S(=O)(=O)NCCc2ccc(C(=O)OC)cc2)cc1` [Example 9, methyl 4-(2-(4-butoxyphenylsulfonamido)ethyl)benzoate], the IC50 is over 100 µM.

As for `CCCCOc1ccc(S(=O)(=O)NCCN2CCC(Cc3ccccc3)CC2)cc1` [Example 10, N-(2-(4-benzylpiperidin-1-yl)ethyl)-4-butoxybenzenesulfonamide], the IC50 is over 100 µM.

With `CCCCOc1ccc(S(=O)(=O)NCCC(O)c2ccccc2)cc1` (centres unmarked) [Example 11, 4-butoxy-N-(3-hydroxy-3-phenylpropyl)benzenesulfonamide], the IC50 was 10 to 100 µM.

As for `CCCCOc1ccc(S(=O)(=O)NCCC(=O)c2ccccc2)cc1` [Example 12, 4-butoxy-N-(3-oxo-3-phenylpropyl)benzenesulfonamide], the IC50 was 10 to 100 µM.

As to `CCCCOc1ccc(S(=O)(=O)NCCCN2CCCC2=O)cc1` [Example 13, 4-butoxy-N-(3-(2-oxopyrrolidin-1-yl)propyl)benzenesulfonamide], the IC50 was over 100 µM.

`CN(C)CCCOc1ccc(S(=O)(=O)NCCc2ccccc2)cc1` [Example 14, 4-(3-(dimethylamino)propoxy)-N-phenethylbenzenesulfonamide]: the IC50 is over 100 µM.

Take `CN(C)CCCOc1ccc(S(=O)(=O)NCCCc2ccccc2)cc1` [Example 15, 4-(3-(dimethylamino)propoxy)-N-(3-phenylpropyl)benzenesulfonamide]: the IC50 was over 100 µM.

For `COC(=O)c1ccc(CCNS(=O)(=O)c2ccc(OCCCN(C)C)cc2)cc1` [Example 16, methyl 4-(2-(4-(3-(dimethylamino)propoxy)phenylsulfonamido)ethyl)benzoate], the IC50 is over 100 µM.

With `CN(C)CCCOc1ccc(S(=O)(=O)NCCc2ccc(C(=O)O)cc2)cc1` [Example 17, 4-(2-(4-(3-(dimethylamino)propoxy)phenylsulfonamido)ethyl)benzoic acid], the IC50 is over 100 µM.

`CN(C)CCCOc1ccc(S(=O)(=O)NCCCN2CCCC2=O)cc1` [Example 18, 4-(3-(dimethylamino)propoxy)-N-(3-(2-oxopyrrolidin-1-yl)propyl)benzenesulfonamide]: the IC50 is over 100 µM.

As to `CCCCOc1ccc(S(=O)(=O)NCCCc2cccc3ccccc23)cc1` [Example 19, 4-butoxy-N-(3-(naphthalen-1-yl)propyl)benzenesulfonamide], the IC50 was over 100 µM.

Regarding `CCCCOc1ccc(S(=O)(=O)NCCCc2c[nH]c3ccccc23)cc1` [Example 20, N-(3-(1H-indol-3-yl)propyl)-4-butoxybenzenesulfonamide], the IC50 is 10 to 100 µM.

Regarding `CN(C)CCOc1ccc(S(=O)(=O)NCCCc2c[nH]c3ccccc23)cc1` [Example 21, N-(3-(1H-indol-3-yl)propyl)-4-(2-(dimethylamino)ethoxy)benzenesulfonamide], the IC50 fell in the range of 10 to 100 µM.

For the compound `CCCCOc1ccc(S(=O)(=O)NCCc2nc3ccccc3[nH]2)cc1` [Example 23], the IC50 is over 100 µM.

In the case of `CCCCOc1ccc(S(=O)(=O)NCCc2c[nH]c3ccccc23)cc1` [Example 24, N-(2-(1H-indol-3-yl)ethyl)-4-butoxybenzenesulfonamide], the IC50 was over 100 µM.

As to `CCCCOc1ccc(S(=O)(=O)NCCc2cc3ccccc3[nH]2)cc1` [Example 25, N-(2-(1H-indol-2-yl)ethyl)-4-butoxybenzenesulfonamide], the IC50 was over 100 µM.

Turning to `CC(C)CCOc1ccc(S(=O)(=O)NCCCc2c[nH]c3ccccc23)cc1` [Example 26, N-(3-(1H-indol-3-yl)propyl)-4-(isopentyloxy)benzenesulfonamide], the IC50 lay in the range of 10 to 100 µM.

With `CCCCCOc1ccc(S(=O)(=O)NCCCc2c[nH]c3ccccc23)cc1` [Example 27, N-(3-(1H-indol-3-yl)propyl)-4-(pentyloxy)benzenesulfonamide], the IC50 fell in the range of 10 to 100 µM.

For the compound `CCCCOc1ccc(S(=O)(=O)NCCCc2nc3ccccc3[nH]2)cc1` [Example 28, N-(3-(1H-benzo[d]imidazol-2-yl)propyl)-4-butoxybenzenesulfonamide], the IC50 is over 100 µM.

Regarding `CCCCOc1ccc(S(=O)(=O)NCCc2c[nH]c3ccc(O)cc23)cc1` [Example 29, 4-butoxy-N-(2-(5-hydroxy-1H-indol-3-yl)ethyl)benzenesulfonamide], the IC50 is over 100 µM.

In the case of `O=S(=O)(NCCCc1c[nH]c2ccccc12)c1ccc(OCCCN2CCOCC2)cc1` [Example 30, N-(3-(1H-indol-3-yl)propyl)-4-(3-morpholinopropoxy)benzenesulfonamide], the IC50 was over 100 µM.

With `CCCCOc1ccc(S(=O)(=O)NCCCn2ccc3ccccc32)cc1` [Example 32, N-(3-(1H-indol-1-yl)propyl)-4-butoxybenzenesulfonamide], the IC50 was over 100 µM.

As for `CCCCOc1ccc(S(=O)(=O)NCCCn2cnc3ccccc32)cc1` [Example 33, N-(3-(1H-benzo[d]imidazol-1-yl)propyl)-4-butoxybenzenesulfonamide], the IC50 was over 100 µM.

Turning to `CN(C)CCCOc1ccc(S(=O)(=O)NCCc2nc3ccccc3[nH]2)cc1` [Example 37, N-(2-(1H-benzo[d]imidazol-2-yl)ethyl)-4-(3-(dimethylamino)propoxy)benzenesulfonamide], the IC50 is over 100 µM.

Turning to `CN(C)CCCOc1ccc(S(=O)(=O)NCCc2cc3ccccc3[nH]2)cc1` [Example 38, N-(2-(1H-indol-2-yl)ethyl)-4-(3-(dimethylamino)propoxy)benzenesulfonamide], the IC50 is over 100 µM.

For `CN(C)CCCOc1ccc(S(=O)(=O)NCCCn2ccc3ccccc32)cc1` [Example 39, N-(3-(1H-indol-1-yl)propyl)-4-(3-(dimethylamino)propoxy)benzenesulfonamide], the IC50 was over 100 µM.

Regarding `CN(C)CCCOc1ccc(S(=O)(=O)NCCCn2cnc3ccccc32)cc1` [Example 40, N-(3-(1H-benzo[d]imidazol-1-yl)propyl)-4-(3-(dimethylamino)propoxy)benzenesulfonamide], the IC50 is over 100 µM.

With `CN1CCN(CCCOc2ccc(S(=O)(=O)NCCCn3ccc4ccccc43)cc2)CC1` [Example 41, N-(3-(1H-indol-1-yl)propyl)-4-(3-(4-methylpiperazin-1-yl)propoxy)benzenesulfonamide], the IC50 was over 100 µM.

`CN1CCN(CCCOc2ccc(S(=O)(=O)NCCCn3cnc4ccccc43)cc2)CC1` [Example 42, N-(3-(1H-benzo[d]imidazol-1-yl)propyl)-4-(3-(4-methylpiperazin-1-yl)propoxy)benzenesulfonamide]: the IC50 is over 100 µM.

As to `O=S(=O)(NCCCc1c[nH]c2ccccc12)c1ccc(OCCCN2CCCCC2)cc1` [Example 43, N-(3-(1H-indol-3-yl)propyl)-4-(3-(piperidin-1-yl)propoxy)benzenesulfonamide], the IC50 fell in the range of 10 to 100 µM.

Turning to `CN(C)CCCOc1ccc(S(=O)(=O)NCCCc2cn(C)c3ccccc23)cc1` [Example 46, 4-(3-(dimethylamino)propoxy)-N-(3-(1-methyl-1H-indole-3-yl)propyl)benzenesulfonamide], the IC50 was over 100 µM.

With `O=S(=O)(NCCCc1c[nH]c2ccccc12)c1ccc(Br)cc1` [Example 47, N-(3-(1H-indole-3-yl)propyl)-4-bromobenzenesulfonamide], the IC50 was over 100 µM.

In the case of `CC(C)N1CCN(CCCOc2ccc(S(=O)(=O)NCCCc3c[nH]c4ccccc34)cc2)CC1` [Example 48, N-(3-(1H-indol-3-yl)propyl)-4-(3-(4-isopropylpiperazin-1-yl)propoxy)benzenesulfonamide], the IC50 was in the range of 10 to 100 µM.

These data come from patent publication US12583818B2 (DAEGU-GYEONGBUK MEDICAL INNOVATION FOUNDATION, priority 2020, dated 2026).
